# PMC3438292 (Journal of medicinal chemistry, 2010)
# Target: 5-HT2B receptors (Homo sapiens, UniProt P41595)
# Test: 5-HT2B functional assays at the PDSP
# Type: cell-based
# Details: among the 9 5-HT2B ligands
# Sequence of 5-HT2B receptors (P41595 whole entry): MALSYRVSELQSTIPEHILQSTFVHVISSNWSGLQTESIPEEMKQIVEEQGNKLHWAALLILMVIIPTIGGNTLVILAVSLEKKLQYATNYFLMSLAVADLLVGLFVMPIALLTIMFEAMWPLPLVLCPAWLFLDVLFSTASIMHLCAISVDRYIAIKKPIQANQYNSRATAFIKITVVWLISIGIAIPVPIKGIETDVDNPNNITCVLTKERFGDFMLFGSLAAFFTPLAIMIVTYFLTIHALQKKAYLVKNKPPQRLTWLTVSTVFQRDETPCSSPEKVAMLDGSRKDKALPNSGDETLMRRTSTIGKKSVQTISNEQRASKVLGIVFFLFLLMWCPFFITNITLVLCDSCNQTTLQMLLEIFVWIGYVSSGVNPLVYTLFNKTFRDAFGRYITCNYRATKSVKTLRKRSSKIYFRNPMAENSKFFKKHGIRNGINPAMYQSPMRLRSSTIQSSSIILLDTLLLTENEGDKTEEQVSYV
row,SMILES,agonist activity in 5-HT2B functional assays
1,"CC[C@@H](CO)NC(=O)[C@@H]1C=C2c3cccc4[nH]cc(c34)C[C@H]2N(C)C1 [Compound 7, methylergometrine]",strong agonist activity

# Tested on: 5-HT2B receptor
# Test: not given
# Details: cited from earlier work
row,SMILES,activation of 5-HT2B receptors
1,CCNC(C)Cc1cccc(C(F)(F)F)c1 (stereo not drawn) [Fenfluramine],potently activate
2,CC[C@@H](CO)NC(=O)[C@@H]1C=C2c3cccc4[nH]cc(c34)C[C@H]2N(C)C1 [Methylergonovine],potently activate
3,CCCN1C[C@H](CSC)C[C@@H]2c3cccc4[nH]cc(c34)C[C@H]21 [Pergolide],potently activate
4,CN1C[C@H](C(=O)N[C@]2(C)O[C@@]3(O)[C@@H]4CCCN4C(=O)[C@H](Cc4ccccc4)N3C2=O)C=C2c3cccc4[nH]cc(c34)C[C@H]21 [ergotamine],potently activate
5,CC(N)Cc1cccc(C(F)(F)F)c1 (stereo not drawn) [norfenfluramine],potently activate
